Assay results published in PubChem BioAssay AID330 (DTP/NCI, 2004).
Values joined by “and” are separate entries in the source; they are usually repeats but may differ in a detail not shown here. Equal values may be shown once. Inconclusive results and toxic doses are left out. Square brackets hold non-standard residues; d marks the D form. Peptide text beside a SMILES is read from it. * marks the point of attachment. ξ: configuration not given here. ξPhe(4-N(CH2CH2Cl)2) = NC(Cc1ccc(N(CCCl)CCCl)cc1)C(=O)O; Cbz = O=C(OCc1ccccc1)*

Test system: P388 leukemia ip, CD2F1 mice, survival T/C
Test: NCI In Vivo Anticancer Drug Screen. Data for tumor model P388 Leukemia (intraperitoneal) in CD2F1 (CDF1) mice
Details: endpoint: median survival time, higher = longer survival
In short: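 Mice carrying the transplanted tumor received test compound or vehicle. Survival was recorded in each group, and the value is the treated-group measurement divided by that of the vehicle-treated control group.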

[1] = dose: 100.0 mg/kg/injection, schedule: Q01DX009 (ip), vehicle: saline with Tween-80
[2] = dose: 200.0 mg/kg/injection, schedule: Q01DX009 (ip), vehicle: saline with Tween-80
[3] = dose: 50.0 mg/kg/injection, schedule: Q01DX005 (ip), vehicle: saline
[4] = dose: 100.0 mg/kg/injection, schedule: Q01DX005 (ip), vehicle: saline
[5] = dose: 200.0 mg/kg/injection, schedule: Q01DX005 (ip), vehicle: saline
[6] = dose: 50.0 mg/kg/injection, schedule: Q01DX005 (ip), vehicle: saline with Tween-80
[7] = dose: 100.0 mg/kg/injection, schedule: Q01DX005 (ip), vehicle: saline with Tween-80
[8] = dose: 200.0 mg/kg/injection, schedule: Q01DX005 (ip), vehicle: saline with Tween-80
[9] = dose: 60.0 mg/kg/injection, schedule: Q01DX005 (ip), vehicle: Klucel (hydroxypropylcellulose) (HPC)
[10] = dose: 120.0 mg/kg/injection, schedule: Q01DX005 (ip), vehicle: Klucel (hydroxypropylcellulose) (HPC)
[11] = dose: 50.0 mg/kg/injection, schedule: Q01DX005 (ip), vehicle: Klucel (hydroxypropylcellulose) (HPC)
[12] = dose: 100.0 mg/kg/injection, schedule: Q01DX005 (ip), vehicle: Klucel (hydroxypropylcellulose) (HPC)

With OCc1c(CO)c(-c2ccc(Cl)c(Cl)c2)n2c1CCC2 the T/C (dose: 13.5 mg/kg/injection, schedule: Q01DX009 (ip), vehicle: saline with Tween-80) was 107 % of control, the T/C (dose: 27.0 mg/kg/injection, schedule: Q01DX009 (ip), vehicle: saline with Tween-80) was 109 % of control and the T/C (dose: 54.0 mg/kg/injection, schedule: Q01DX009 (ip), vehicle: saline with Tween-80) was 109 % of control. The T/C [1] was 116 % of control and 118 % of control and the T/C [2] was 116 % of control.

In the case of Clc1ccc(C2=NC(c3ccccc3)/C(=C/c3ccccc3)S2)cc1 (configuration not stated), the T/C (dose: 50.0 mg/kg/injection, schedule: Q01DX009 (ip), vehicle: saline with Tween-80) is reported as 101 % of control, the T/C [1] is reported as 98 % of control and the T/C [2] is reported as 90 % of control.

With CC(N)C(=O)NCC(=O)NCC(=O)O (configuration not stated) the T/C [3] was 100 % of control, the T/C [4] was 106 % of control and the T/C [5] was 99 % of control.

With O=[N+]([O-])c1ccc(Sc2ccc(Cl)cc2)c2nonc12 the T/C (dose: 6.25 mg/kg/injection, schedule: Q01DX009 (ip), vehicle: saline with Tween-80) was 105 % of control, the T/C (dose: 12.5 mg/kg/injection, schedule: Q01DX009 (ip), vehicle: saline with Tween-80) was 101 % of control and the T/C (dose: 25.0 mg/kg/injection, schedule: Q01DX009 (ip), vehicle: saline with Tween-80) was 93 % of control.

With CC(C)=CCCC(C)=CCON(C)C (mixture of isomers) the T/C (dose: 100.0 mg/kg/injection, schedule: Q04DX002 (ip), vehicle: saline with Tween-80) was 92 % of control and the T/C (dose: 200.0 mg/kg/injection, schedule: Q04DX002 (ip), vehicle: saline with Tween-80) was 101 % of control.

In the case of Cc1cc(C)nc(/C=C/c2ccccc2)c1, the T/C (dose: 60.0 mg/kg/injection, schedule: Q01DX005 (ip), vehicle: saline with Tween-80) is reported as 104 % of control, the T/C (dose: 120.0 mg/kg/injection, schedule: Q01DX005 (ip), vehicle: saline with Tween-80) is reported as 105 % of control and the T/C (dose: 240.0 mg/kg/injection, schedule: Q01DX005 (ip), vehicle: saline with Tween-80) is reported as 106 % of control.

O=C(O)C(Cc1ccc(O)cc1)NC(=O)C1CCCN1C(=O)OCc1ccccc1 (stereo not drawn) (Cbz-Pro-Tyr-OH; configuration not given here) was tested, and the T/C [3] was 96 % of control, the T/C [4] was 96 % of control and the T/C [5] was 96 % of control.

With CC(C)CN1CC(=O)N2CCCC(C)N2C(=O)C1 (configuration not stated) the T/C [6] was 100 % of control, the T/C [7] was 99 % of control and the T/C [8] was 102 % of control.

In the case of C=Cc1c(C)c(OC(C)=O)cc2c1-c1ccc(OC(C)=O)c(C)c1CC2, the T/C (dose: 2.25 mg/kg/injection, schedule: Q01DX009 (ip), vehicle: Klucel (hydroxypropylcellulose) (HPC)) is reported as 103 % of control, the T/C (dose: 4.5 mg/kg/injection, schedule: Q01DX009 (ip), vehicle: Klucel (hydroxypropylcellulose) (HPC)) is reported as 100 % of control and the T/C (dose: 9.0 mg/kg/injection, schedule: Q01DX009 (ip), vehicle: Klucel (hydroxypropylcellulose) (HPC)) is reported as 94 % of control. For the same compound, the T/C (dose: 18.0 mg/kg/injection, schedule: Q01DX009 (ip), vehicle: Klucel (hydroxypropylcellulose) (HPC)) was 100 % of control.

For CC1(C)CC(=O)N(CN2CCCCC2)C(=O)C1, the T/C (dose: 100.0 mg/kg/injection, schedule: Q04DX002 (ip), vehicle: Klucel (hydroxypropylcellulose) (HPC)) was 114 % of control and the T/C (dose: 200.0 mg/kg/injection, schedule: Q04DX002 (ip), vehicle: Klucel (hydroxypropylcellulose) (HPC)) was 120 % of control.

O=C1CC(c2ccccc2)NCCC2CN(CCCN1)C(=O)c1ccccc12 (configuration not stated) was tested, and the T/C (dose: 16.25 mg/kg/injection, schedule: Q01DX005 (ip), vehicle: Klucel (hydroxypropylcellulose) (HPC)) was 100 % of control, the T/C (dose: 32.5 mg/kg/injection, schedule: Q01DX005 (ip), vehicle: Klucel (hydroxypropylcellulose) (HPC)) was 100 % of control and the T/C (dose: 65.0 mg/kg/injection, schedule: Q01DX005 (ip), vehicle: Klucel (hydroxypropylcellulose) (HPC)) was 100 % of control. The T/C (dose: 130.0 mg/kg/injection, schedule: Q01DX005 (ip), vehicle: Klucel (hydroxypropylcellulose) (HPC)) was 100 % of control.

For CC1=CC(=Nc2cc(Cl)c(O)c(Cl)c2)C=CC1=O, the T/C (dose: 6.25 mg/kg/injection, schedule: Q01DX005 (ip), vehicle: saline) was 96 % of control, the T/C (dose: 12.5 mg/kg/injection, schedule: Q01DX005 (ip), vehicle: saline) was 96 % of control and the T/C (dose: 25.0 mg/kg/injection, schedule: Q01DX005 (ip), vehicle: saline) was 89 % of control.

For Cc1cc[c]([Bi]([c]2ccc(C)cc2)[c]2ccc(C)cc2)cc1, the T/C [9] was 105 % of control and the T/C [10] was 96 % of control.

For CCSC1C(=O)N(C)C(SCC)C(=O)N1C (configuration not stated), the T/C (dose: 12.5 mg/kg/injection, schedule: Q01DX009 (ip), vehicle: saline) was 103 % of control, the T/C (dose: 25.0 mg/kg/injection, schedule: Q01DX009 (ip), vehicle: saline) was 109 % of control and the T/C (dose: 50.0 mg/kg/injection, schedule: Q01DX009 (ip), vehicle: saline) was 100 % of control and 86 % of control.

For N/N=C(\N)c1nn(C2OC(CO)C(O)C2O)c2ncnc(N)c12 (configuration not stated), the T/C (dose: 40.0 mg/kg/injection, schedule: Q01DX005 (ip), vehicle: saline with Tween-80) was 104 % of control, the T/C (dose: 80.0 mg/kg/injection, schedule: Q01DX005 (ip), vehicle: saline with Tween-80) was 104 % of control and the T/C (dose: 160.0 mg/kg/injection, schedule: Q01DX005 (ip), vehicle: saline with Tween-80) was 101 % of control. The T/C (dose: 320.0 mg/kg/injection, schedule: Q01DX005 (ip), vehicle: saline with Tween-80) was 104 % of control.

In the case of Nc1cc2nc3ccccc3nc2cc1O, the T/C [6] is reported as 90 % of control, the T/C [7] is reported as 90 % of control and the T/C [8] is reported as 90 % of control.

In the case of Cc1nc(N)[nH]c(=O)c1N, the T/C (dose: 12.5 mg/kg/injection, schedule: Q01DX005 (ip), vehicle: Klucel (hydroxypropylcellulose) (HPC)) is reported as 99 % of control, the T/C (dose: 25.0 mg/kg/injection, schedule: Q01DX005 (ip), vehicle: Klucel (hydroxypropylcellulose) (HPC)) is reported as 108 % of control and the T/C [11] is reported as 103 % of control and 98 % of control. For the same compound, the T/C [12] was 110 % of control.

In the case of CCN(CC)C1=C(C)C(C(=O)OC)=C(C(=O)OC)C12c1ccccc1-c1ccccc12, the T/C [9] is reported as 92 % of control, the T/C [10] is reported as 92 % of control and the T/C (dose: 240.0 mg/kg/injection, schedule: Q01DX005 (ip), vehicle: Klucel (hydroxypropylcellulose) (HPC)) is reported as 86 % of control.

With O=C1C=CC2OC(c3ccccc3)C(O)C2O1 (configuration not stated) the T/C (dose: 3.12 mg/kg/injection, schedule: Q01DX005 (ip), vehicle: DMSO) was 98 % of control, the T/C (dose: 6.25 mg/kg/injection, schedule: Q01DX005 (ip), vehicle: DMSO) was 107 % of control and the T/C (dose: 6.25 mg/kg/injection, schedule: Q01DX005 (ip), vehicle: saline with Tween-80) was 110 % of control and 118 % of control (2×). For the same compound, the T/C (dose: 6.25 mg/kg/injection, schedule: Q01DX009 (ip), vehicle: distilled water + Tween-80 + alcohol) was 98 % of control, the T/C (dose: 12.5 mg/kg/injection, schedule: Q01DX005 (ip), vehicle: DMSO) was 116 % of control and the T/C (dose: 12.5 mg/kg/injection, schedule: Q01DX005 (ip), vehicle: saline with Tween-80) was 103 % of control (2×) and 117 % of control. The T/C (dose: 12.5 mg/kg/injection, schedule: Q01DX009 (ip), vehicle: distilled water + Tween-80 + alcohol) was 109 % of control, the T/C (dose: 25.0 mg/kg/injection, schedule: Q01DX005 (ip), vehicle: DMSO) was 122 % of control and the T/C (dose: 25.0 mg/kg/injection, schedule: Q01DX005 (ip), vehicle: saline with Tween-80) was 109 % of control (2×) and 118 % of control. For the same compound, the T/C (dose: 25.0 mg/kg/injection, schedule: Q01DX009 (ip), vehicle: distilled water + Tween-80 + alcohol) was 118 % of control, the T/C (dose: 30.0 mg/kg/injection, schedule: Q01DX009 (ip), vehicle: DMSO) was 113 % of control and the T/C [6] was 107 % of control.

CCOC(=O)C(Cc1ccc(N(CCCl)CCCl)cc1)NC(=O)C(Cc1ccccc1)NC(=O)C(NC(=O)CNC(=O)C1CCCN1)C(C)C (configuration not stated) (H-PGVF[ξPhe(4-N(CH2CH2Cl)2)]-OEt; configuration not given here) was tested, and the T/C (dose: 10.0 mg/kg/injection, schedule: Q04DX003 (ip), vehicle: water) was 150 % of control, the T/C (dose: 20.0 mg/kg/injection, schedule: Q04DX003 (ip), vehicle: water) was 173 % of control and the T/C (dose: 40.0 mg/kg/injection, schedule: Q04DX003 (ip), vehicle: water) was 193 % of control.

With C[n+]1c(-c2ccccc2)c2ccccn2c1Sc1n2ccccc2c(-c2ccccc2)[n+]1C the T/C (dose: 1.56 mg/kg/injection, schedule: Q01DX009 (ip), vehicle: Klucel (hydroxypropylcellulose) (HPC)) was 100 % of control, the T/C (dose: 3.12 mg/kg/injection, schedule: Q01DX009 (ip), vehicle: Klucel (hydroxypropylcellulose) (HPC)) was 102 % of control and the T/C (dose: 6.25 mg/kg/injection, schedule: Q01DX009 (ip), vehicle: Klucel (hydroxypropylcellulose) (HPC)) was 90 % of control and 97 % of control.

In the case of C1CN1CN1CC1, the T/C [11] is reported as 102 % of control and the T/C [12] is reported as 99 % of control.
